From patent publication US10611778B2, “Fused bicyclic inhibitors of menin-MLL interaction” (Janssen Pharmaceutica NV, priority 2016, dated 2020)
pIC50: −log10 of the molar value. Where two headings read alike, the source gives them in different places.

How the values were obtained:
[1] = target: T1, Menin/MLL (terbium chelate-labeled menin, FITC-MBM1 peptide) (Homo sapiens, UniProt O00255, T541A); assay: Menin/MLL homogenous time-resolved fluorescence (HTRF) assay; type: binding; conditions: for pIC50: averaged values over all measurements, read-out: Menin HTRF assay (IC50)
T1 construct: Menin (a.a. 1-610-6×his tag) was labeled with terbium cryptate as follows
T1 sequence (O00255 with tags, fused parts or gaps T541A): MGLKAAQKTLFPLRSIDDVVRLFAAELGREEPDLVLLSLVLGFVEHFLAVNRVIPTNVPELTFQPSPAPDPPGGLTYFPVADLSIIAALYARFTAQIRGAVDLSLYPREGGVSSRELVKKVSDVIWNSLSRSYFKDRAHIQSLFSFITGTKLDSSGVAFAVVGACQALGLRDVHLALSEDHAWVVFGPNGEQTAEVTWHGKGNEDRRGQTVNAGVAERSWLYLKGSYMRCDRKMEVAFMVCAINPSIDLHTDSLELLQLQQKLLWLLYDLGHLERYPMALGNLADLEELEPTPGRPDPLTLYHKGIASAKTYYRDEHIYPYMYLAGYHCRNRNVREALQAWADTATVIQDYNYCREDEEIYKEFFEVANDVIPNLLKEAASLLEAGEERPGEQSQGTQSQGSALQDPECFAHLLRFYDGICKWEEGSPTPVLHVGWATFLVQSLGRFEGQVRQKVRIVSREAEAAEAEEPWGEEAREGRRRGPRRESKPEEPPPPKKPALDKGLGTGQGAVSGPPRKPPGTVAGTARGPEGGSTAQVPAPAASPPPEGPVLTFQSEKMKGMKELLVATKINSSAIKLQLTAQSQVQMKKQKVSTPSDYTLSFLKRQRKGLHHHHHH
Method in brief: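 Compound preincubated 5 min with terbium-cryptate-labeled menin (aa 1-610, His-tagged; 100 pM final), then 75 nM FITC-MBM1 peptide added, 15 min at ambient temperature; 0.5% DMSO, Tris pH 7.5 buffer. HTRF ratio 520/490 nm; % inhibition vs saturating competitor, IC50 from 11-point three-fold titration from 31 μM.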

[2] = target: T2, Menin/MLL (menin, FITC-MBM1 peptide) (Homo sapiens, UniProt O00255, T541A); assay: Menin/MLL fluorescence polarization (FP) assay; type: binding; conditions: for pIC50: averaged values over all measurements, read-out: Menin FP assay (IC50)
T2 construct: 6xHis (C)
T2 sequence (O00255 with tags, fused parts or gaps T541A): T1 sequence (O00255 with tags, fused parts or gaps T541A)
Method in brief: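 Compound pre-incubated 10 min with 100 nM menin (40 mM Tris-HCl pH 7.5, 50 mM NaCl, 1 mM DTT, 0.001% Tween 20), then 5 nM FITC-MBM1 peptide added for 15 min at ambient temperature; 0.625% DMSO final. FP read at ex 485/em 520 nm. IC50 from 11-point three-fold dilutions from 31 μM, % inhibition vs saturating-competitor controls.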

pIC50 [1] | pIC50 [2] | IC50 ([1]; individual measurements (not averaged), read-out: (3) Menin HTRF assay (IC50 (nM))) [nM] | IC50 ([2]; individual measurements (not averaged), read-out: (1) Menin FP assay (IC50 (μM))) [µM] | Compound
6.32 | 6.68 |  |  | Fc1ccccc1CN1CC[C@H]2CN(c3ncnc4sc(CC(F)(F)F)cc34)CC[C@H]21 (single isomer, unassigned) [Compound 6]
 |  | 48 | 0.101 | FC(F)(F)Cc1cc2c(N3CC[C@H]4[C@H](CCN4Cc4ccc[nH]4)C3)ncnc2s1 (single isomer, unassigned) [Compound 8]
6.95 | 7.48 |  |  | FC(F)(F)Cc1cc2c(N3CCC4C(CCN4Cc4ccccc4)C3)ncnc2s1 (centres unmarked) [Compound 1]
6.10 | 6.47 |  |  | FC(F)(F)Cc1cc2c(N3CCC4C3CCN4Cc3ccccc3)ncnc2s1 (centres unmarked) [Compound 2]
